ChEMBL document CHEMBL4229569, “Structure-Based Design of 1-Heteroaryl-1,3-propanediamine Derivatives as a Novel Series of CC-Chemokine Receptor 5 Antagonists” (J Med Chem, 2018)

How the values were obtained:
Conditions in all cases: recombinant enzyme
[1] = Drug level in human liver cells assessed as CYP450-mediated compound formation treated with 4,4-Difluoro-N-(3-((1R,3S,5S)-3-(3-isopropyl-5-methyl-4H-1,2,4-triazol-4-yl)-8-azabicyclo[3.2.1]octan-8-yl)-1-(thiophen-3-yl)-propyl)cyclohexane-1-carboxamide by UPLC/Q-TOF mass spectrometric analysis; assay type: ADME, cell-based
[2] = Drug level in dog liver cells assessed as CYP450-mediated compound formation treated with 4,4-Difluoro-N-(3-((1R,3S,5S)-3-(3-isopropyl-5-methyl-4H-1,2,4-triazol-4-yl)-8-azabicyclo[3.2.1]octan-8-yl)-1-(thiophen-3-yl)-propyl)cyclohexane-1-carboxamide by UPLC/Q-TOF mass spectrometric analysis; assay type: ADME, cell-based, Canis lupus familiaris
[3] = Drug level in rat liver cells assessed as CYP450-mediated compound formation treated with 4,4-Difluoro-N-(3-((1R,3S,5S)-3-(3-isopropyl-5-methyl-4H-1,2,4-triazol-4-yl)-8-azabicyclo[3.2.1]octan-8-yl)-1-(thiophen-3-yl)-propyl)cyclohexane-1-carboxamide by UPLC/Q-TOF mass spectrometric analysis; assay type: ADME, cell-based
[4] = Drug level in mouse liver cells assessed as CYP450-mediated compound formation treated with 4,4-Difluoro-N-(3-((1R,3S,5S)-3-(3-isopropyl-5-methyl-4H-1,2,4-triazol-4-yl)-8-azabicyclo[3.2.1]octan-8-yl)-1-(thiophen-3-yl)-propyl)cyclohexane-1-carboxamide by UPLC/Q-TOF mass spectrometric analysis; assay type: ADME, cell-based
[5] = Drug level in rat liver cells assessed as CYP450-mediated compound formation treated with maraviroc by Q-TOF mass spectrometric analysis; assay type: ADME, cell-based
[6] = Drug level in dog liver cells assessed as CYP450-mediated compound formation treated with maraviroc by Q-TOF mass spectrometric analysis; assay type: ADME, cell-based, Canis lupus familiaris
[7] = Drug level in human liver cells assessed as CYP450-mediated compound formation treated with maraviroc by Q-TOF mass spectrometric analysis; assay type: ADME, cell-based

Measured: Drug uptake

Cc1nnc(C(C)C)n1[C@@H]1C[C@H]2CC[C@@H](C1)N2CC[C@H](NC(=O)C1CCC(F)CC1)c1ccsc1 (some centres not stated)
Active: all assays above
